The text below walks through data of patent US6479528B1, “Methods for inhibiting or reversing tau filament formation polymerization” (Neuronautics, Inc., priority 2001, dated 2002).

Several values for one entry are separate records, joined by “and”; a condition that tells them apart may be missing. Identical values can stand only once. Entries after “also recorded” stand apart in the source; their conditions may differ. Like-named read-outs stand apart in the source and are kept apart here. Where only a bound is given, the exact number is not on record here.

For one series, the target named is T1, recombinant human htau40 (Homo sapiens, UniProt P10636).
T1 construct: synthetic straight filaments prepared from recombinant full-length tau; made in house
T1 sequence (P10636 1-441 isoform P10636-8): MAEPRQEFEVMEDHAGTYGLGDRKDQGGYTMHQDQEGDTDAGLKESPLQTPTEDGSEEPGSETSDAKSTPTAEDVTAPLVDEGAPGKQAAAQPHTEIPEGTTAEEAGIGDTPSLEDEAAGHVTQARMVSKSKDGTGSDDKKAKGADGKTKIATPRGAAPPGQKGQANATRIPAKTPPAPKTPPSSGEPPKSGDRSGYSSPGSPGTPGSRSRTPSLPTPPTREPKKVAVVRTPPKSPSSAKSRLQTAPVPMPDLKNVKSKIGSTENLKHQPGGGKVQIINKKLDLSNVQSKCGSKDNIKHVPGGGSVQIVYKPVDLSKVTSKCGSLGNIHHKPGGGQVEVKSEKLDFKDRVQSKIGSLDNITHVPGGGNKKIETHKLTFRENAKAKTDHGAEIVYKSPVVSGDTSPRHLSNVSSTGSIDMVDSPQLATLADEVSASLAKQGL
Nature of the series: Thioflavin S fluorescence assay of arachidonic acid-induced tau polymerization. The class given is biochemical. The procedure:
(§1) Tau Polymerization. Purified isoforms of tau were polymerized as described previously (Wilson et al., Am. J. Pathol. 150: 2181 (1997); King et al., Biochemistry 38: 14851 (1999); King et al., J. Neurochem. 74: 1749 (2000)). Briefly, 2-8 mM (final concentration) htau40 or mutant htau40^C291A, C322A was incubated at room temperature in the presence or absence of 2-[[4-(dimethylamino)phenyl]azo]-6-methoxylbenzothiazole (compound I′) with polymerization buffer (10 mM 4-[2-hydroxyethyl]-1-piperazineethanesulfonic acid, 100 mM NaCl, and 5 mM DTT) containing 4 mM thioflavin S. Polymerization was induced by the addition of arachidonic acid (75-100 mM) and continued until analyzed by fluorescence or electron microscopy assays described below. When present, compound I′ final concentration varied from 0.05-2 mM. Control reactions were normalized for DMSO vehicle, which was limited to 5% in all reactions.
(§2) Fluorescence. Tau aggregation and disassembly were monitored by following thioflavin S fluorescence as described previously (King et al., 1999). Inhibitory activity of compound I′ was quantified by fitting the resultant data to the relationship
A=A0+(Amax−A0)/[1+10^(log IC50−logX)]
where A and A0 are blank-adjusted fluorescence in the presence and absence of inhibitor (at concentration X), respectively. IC50 values were calculated using the nonlinear regression algorithm of GRAPHPAD PRISM (GraphPad Software Inc.).
Inhibition of tau Polymerization. […] 31, 2000. 2-[[4-(Dimethylamino)phenyl]azo]-6-methoxylbenzothiazole (compound I′), an uncharged (at physiological pH) member of the azo dye family that includes Congo Red, was identified as having inhibitory activity against htau40.
The effect of compound I′ on polymerization of htau40 (2 mM) was quantified using a thioflavin S (2-4 mM) fluorescence assay (King et al., 1999).

Another series concerns the target Ab fibrils (Homo sapiens, UniProt P05067). Conditions: cited from earlier work.
Series [1] is described as follows: Charge state at physiological pH. The class given is physicochemical.
Series [2] relates to Tau filaments isolated from AD brain. Nature of the series: Disassembly of authentic tau filaments, electron microscopy. The class given is biochemical, human. The note with it: 2 mM compound; 20 min incubation; filaments 0.03 mg/ml. The procedure: The ability of compound I′ (2 mM) to depolymerize authentic filaments (0.033 mg/ml) was assayed as above except that timepoints were limited to 0, 10, and 20 min post addition.
(§3) Transmission Electron Microscopy. Aliquots (50 ml) of polymerization and depolymerization reactions were removed, fixed with glutaraldehyde (2%), and adsorbed (1 min) onto 300 mesh formvar/carbon-coated copper grids (Electron Microscopy Sciences; Ft. Washington, Pa.). The resultant grids were washed with water, stained (1 min) with 2% uranyl acetate (Electron Microscopy Sciences), washed again with water, blotted dry, and viewed in a Phillips CM 12 microscope operated at 65 kV. Four to six random images from each experimental condition were captured on film at either 13,000× or 22,000× magnification, digitized, calibrated, and imported into Optimas 6.5.1 for quantitation of filament length and number as described previously (King et al., 2000). Individual filaments defined as any object greater than 50 nm in its long axis were counted manually. Counts from each of the 4 to 6 random images per condition are reported as an average±standard deviation for both filament length and number. Length distributions were quantified in 100 nm-wide bins, beginning with 50-150 nm lengths and continuing 151-250 nm, 251-350 nm, etc.
Authentic PHF Disassembly. […]

Series [3] addresses T2, htau40^C291A, C322A filaments (Homo sapiens, UniProt P10636, C608A/C639A).
T2 construct: synthetic straight filaments prepared from recombinant full-length tau; made in house
Nature of the series: Inhibitor-mediated depolymerization of preassembled synthetic tau filaments, electron microscopy time course. The class given is biochemical. The protocol: (§4) Tau Depolymerization. Solutions of purified htau40 or htau40^C291A, C322A (8 mM) were polymerized as described above for 3.5 hours. To assay dilution-mediated depolymerization, aliquots (50 ml) of reaction product were injected into a stirred quartz cuvette containing 1 ml of polymerization buffer with 4 mM thioflavin S and fluorescence decay followed as a function of time (room temperature). When present, arachidonic acid was 50 mM and tau was held at 2 mM.
To assay inhibitor-mediated depolymerization, compound I′ was added to polymerized tau to a final concentration of 0.2 mM into two separate microcentrifuge tubes. Aliquots were removed from each sample after 10, 20, 30, 45, 60 minutes incubation and subjected to fluorescence or electron microscopy assays described below. Control (no compound I′) reactions were normalized for DMSO vehicle, which was limited to 5% in all reactions.
as §3, with “The resultant grids were washed with water, stained (1 min) with 2% uranyl acetate (Electron Microscopy Sciences), washed again with water, blotted dry, and viewed in a Phillips CM 12 microscope operated at 65 kV.” left out, “Counts from each of the 4 to 6 random images per condition are reported as an average±standard deviation for both filament length and number.” left out
To determine whether compound I′-mediated tau depolymerization proceeded by an endwise mechanism, htau40^C291A, C322A (4 mM) was polymerized over a 3.5 hour period after which time compound I′ (200 nM) or DMSO vehicle alone was added and filament lengths were measured over a 1 hour “chase” by electron microscopy. […]

Another series concerns the target T3, Aβ1-40 (Homo sapiens, UniProt P05067).
T3 construct: Stock solutions of Aβ1-40 (Bachem; Philadelphia, Pa.) were prepared in DMSO; purchased Bachem
Nature of the series: Aβ1-40 aggregation, turbidity at 350 nm. The class given is biochemical. Conditions: 20 μM (20 mM in the source) compound, stoichiometric with Aβ. The protocol:
Aβ1-40 Aggregation. Stock solutions of Aβ (1 mM) were prepared in DMSO and filtered (0.2 mM cutoff). Aggregation was initiated by diluting the Aβb stock solution to 20 mM final concentration in aggregation buffer (150 mM NaCl, 10 mM 2-[N-morpholino]ethanesulfonic acid, pH 6.2; final volume 100 mL). Turbidity resulting from Aβ aggregation in the presence (20 mM final concentration) and absence of compound I′ was monitored as a function of time in a Beckman DU640B spectrophotometer at 350 nm versus a DMSO vehicle blank (Snyder et al., Biophys. J. 67: 1216 (1994); Evans et al., Proc. Natl. Acad. Sci. USA 92: 763 (1995)). Cuvettes were rapidly inverted before each reading.
Selectivity of tau Polymerization Antagonism. […] To determine whether amyloid binding was accompanied by polymerization inhibitory activity, the ability of compound I′ to inhibit spontaneous Aβ1-40 assembly was examined. In the absence of ligand, Aβ1-40 (20 mM) polymerized spontaneously after a lag of 1 hour (FIG. 6).

The target of series [4] is T4, synthetic tau filaments (htau40) (Homo sapiens, UniProt P10636).
T4 construct: synthetic straight filaments prepared from recombinant full-length tau; made in house
T4 sequence (P10636 1-441 isoform P10636-8): as above
Nature of the series: Disassembly of preassembled synthetic tau filaments, dose response. The class given is biochemical. The note with it: filaments assembled 3 hours; read-out: IC50, dose response on preassembled tau filaments (data not shown). The protocol:
as §4
To assay inhibitor-mediated depolymerization, compound I′ was added to polymerized tau to a final concentration of 0.2 mM into two separate microcentrifuge tubes. Aliquots were removed from each sample after 10, 20, 30, 45, 60 minutes incubation and subjected to fluorescence or electron microscopy assays described below. […]
as §2
To determine whether compound I′ also could destabilize mature filaments and mimic the depolymerization observed in dilution experiments, tau filaments assembled in the presence of thioflavin S for 3 hours under standard conditions were incubated in the presence or absence of compound I′ (200 nM) and examined after various times by electron microscopy and fluorescence.

The next series addresses T5, htau40^C291A, C322A (Homo sapiens, UniProt P10636, C608A/C639A).
T5 construct: synthetic straight filaments prepared from recombinant full-length tau; made in house
Nature of the series: Electron microscopy assay of tau filament formation. The class given is biochemical. The note with it: 200 nM compound (1:40 molar ratio relative to tau), 8 µM htau40^C291A. The protocol: as §1, with “Control reactions were normalized for DMSO vehicle, which was limited to 5% in all reactions.” left out
Transmission Electron Microscopy. […] Four to six random images from each experimental condition were captured on film at either 13,000× or 22,000× magnification, digitized, calibrated, and imported into Optimas 6.5.1 for quantitation of filament length and number as described previously (King et al., 2000). Individual filaments defined as any object greater than 50 nm in its long axis were counted manually. […] Length distributions were quantified in 100 nm-wide bins, beginning with 50-150 nm lengths and continuing 151-250 nm, 251-350 nm, etc. […]

Setting [5] is: approximate values given in the description, read-out: IC50, arachidonic acid polymerization of full length tau protein.
Setting [6] is: after 1 hour incubation with 200 nM compound.

T2 sequence (P10636 1-441 isoform P10636-8 C291A/C322A): as the sequence (P10636 1-441 isoform P10636-8) above, with C291A, C322A counted along it
T3 sequence (P05067 672-711 limits assumed): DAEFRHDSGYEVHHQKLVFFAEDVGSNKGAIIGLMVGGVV
T5 sequence (P10636 1-441 isoform P10636-8 C291A/C322A): as the sequence (P10636 1-441 isoform P10636-8) above, with C291A, C322A counted along it
Sequence of Ab fibrils (P05067 672-713 limits assumed): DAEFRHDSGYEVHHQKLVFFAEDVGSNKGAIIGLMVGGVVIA

Turning to `CCN(CCO)c1ccc(N=Nc2nc3ccc(OC)cc3s2)cc1` [2-[[4-(N-ethyl-N-β-hydroxyethylamino)phenyl]azo]-6-methoxybenzothiazole], the IC50 at recombinant human htau40 (setting [5]) is around 60 nM.
On the same count and under the same terms, with `CCN(CC)c1ccc(N=Nc2nc3ccc(OC)cc3s2)cc1` [2-[[4-(didethylamino)phenyl]azo]-6-methoxybenzothiazole] the figure was around 60 nM; with `CCC(=Cc1sc2ccc(OC)cc2[n+]1CCO)C=C1Sc2ccc(OC)cc2N1CCO` [3-(2-hydroxy-ethyl)-2-{2-[3-(2-hydroxyl-ethyl)-5-methoxy-3H-benzothiazol-2-ylidenemethyl]-but-1-enyl}-5-methoxy-benzothiazol-3-ium], around 40 nM.
For `Cc1ccc(N=Nc2ccc(-c3ccc(N=Nc4ccc(C)c(C(=O)O)c4O)cc3)cc2)c(O)c1C(=O)O` [3-[4′-(3-carboxy-2-hydroxy4-methyl-cyclohexa-1,5-dienylazo)-biphenyl-4-ylazo]-2-hydroxy-6-methyl benzoic acid], the IC50 at recombinant human htau40 (setting [5]) was around 400 nM.
Regarding `Cc1cc(N=Nc2c(O)ccc3ccccc23)c(CCCC(=O)O)s1` [4-[3-(2-hydroxy-naphthalen-1-ylazo)-5-methyl-thiophen-2-yl]-butyric acid], the IC50 at recombinant human htau40 (setting [5]) was around 700 nM.
With `O=C1Nc2ccccc2/C1=N/NC(=O)c1cc2ccccc2cc1O` [Compound III, 3-hydroxy-napthalene-2-carboxylic acid (2-oxo-1,2-dihydro-indol-3-ylidene)-hydrazide], the IC50 on recombinant human htau40 (setting [5]) is around 600 nM.
Take `Nc1ccc(-c2nc3ccc(-c4nc5ccc(N)cc5[nH]4)cc3[nH]2)cc1` [Ro 90-7501]: the “effect on Ab fibrils” value at Ab fibrils is “inhibit polymerization and promote disaggregation”.
As to `COc1ccc2nc(N=Nc3ccc(N(C)c4ccccc4)cc3)sc2c1` [[4-(6-methoxy-benzothiazol-2-ylazo)phenyl]-methylphenyl amine], on recombinant human htau40 (setting [5]), the IC50 is around 60 nM.
`COc1ccc2nc(/N=N/c3ccc(N(C)C)cc3)sc2c1` [compound I′, 2-[[4-(dimethylamino)phenyl]azo]-6-methoxylbenzothiazole]: the “IC50 as % of the molar concentration of arachidonic acid” value on recombinant human htau40 was below 0.1%. Further, at recombinant human htau40 (setting [5]), the IC50 is < 100 nM and ~60 nM. For the same compound, the IC50 at recombinant human htau40 (arachidonic acid-induced, 3.5 h, room temperature, % of DMSO vehicle control fluorescence, read-out: IC50, inhibition of htau40 polymerization (thioflavin S fluorescence)) amounted to 54 ± 6 nM. For the same compound, in series [1], the “charge at physiological pH” value is recorded as “uncharged”. Further, the “total filament length, % of DMSO vehicle control” value in series [2] was 14±9% and 10-50%. Moreover, the “initial first order rate of decrease of total filament length per field” value in series [3] (200 nM compound added to filaments polymerized 3.5 h) stood at 0.042 min⁻¹. Also, in series [3] (setting [6]), the “total filament length, % of vehicle only controls” value turned out to be 21±6% and the “total filament number, % of vehicle only controls” value came to 84±26%. Besides, the “effect on Aβ1-40 polymerization / assembly kinetics” value at Aβ1-40 is “did not inhibit Aβ polymerization; also recorded: does not interfere with Aβ1-40 assembly; also recorded: did not alter Aβ1-40 assembly kinetics significantly”. The IC50 in series [4] amounted to 91 ± 13 nM. Further, on htau40^C291A, C322A, the total filament number, % of control at 0.2 µM turned out to be 14.2 ± 0.6% and the “total filament number, % of control values” was 10-20%.
As for thioflavin S [reference compound], the “effect on tau polymerization at the concentration required for filament binding” value on recombinant human htau40 (concentration about EC50 of binding) was “not sufficient to inhibit or reverse tau polymerization”.

One may read the IC50 as the point on the concentration scale where inhibition reaches its midpoint.
